Experimental findings from patent publication US7235580B2, “Mitotic kinesin inhibitors” (Merck & Co., Inc., priority 2002, dated 2007) are described below.

The target of the assay is T1, human KSP motor domain (KSP(367H)) (Homo sapiens, UniProt P52732).
T1 construct: were used to amplify the motor domain and the neck linker region; made in house; host or cells: E. coli BL21 (DE3), pRSETa
T1 sequence (P52732 18-359 limits assumed): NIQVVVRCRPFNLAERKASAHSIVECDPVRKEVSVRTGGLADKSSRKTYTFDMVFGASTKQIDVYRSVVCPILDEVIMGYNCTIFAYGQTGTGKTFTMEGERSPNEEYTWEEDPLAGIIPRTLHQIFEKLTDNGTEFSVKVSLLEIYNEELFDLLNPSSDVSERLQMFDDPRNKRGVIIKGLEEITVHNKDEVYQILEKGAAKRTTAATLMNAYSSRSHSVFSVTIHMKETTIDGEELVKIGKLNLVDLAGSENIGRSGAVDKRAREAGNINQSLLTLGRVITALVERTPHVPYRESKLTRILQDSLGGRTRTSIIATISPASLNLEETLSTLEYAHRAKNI
Kind of assay: Kinesin ATPase In Vitro Assay. Format: biochemical. The conditions noted are these: kinesin motor domain with microtubules, 1 mM ATP, 23° C.; free phosphate by quinaldine red/ammonium molybdate. The text has this: I. Kinesin ATPase In Vitro Assay
Cloning and Expression of Human Poly-histidine Tagged KSP Motor Domain (KSP(367H))
Plasmids for the expression of the human KSP motor domain construct were cloned by PCR using a pBluescript full length human KSP construct (Blangy et al., Cell, vol. 83, pp 1159-1169, 1995) as a template. The N-terminal primer 5′-[…] (SEQ.ID.NO.: 1) and the C-terminal primer 5′-[…] […] (SEQ.ID.NO.: 2) were used to amplify the motor domain and the neck linker region. The PCR products were digested with AseI and XhoI, ligated into the NdeI/XhoI digestion product of pRSETa (Invitrogen) and transformed into E. coli BL21 (DE3).
Cells were grown at 37° C. to an OD600 of 0.5. After cooling the culture to room temperature expression of KSP was induced with 100 μM IPTG and incubation was continued overnight. Cells were pelleted by centrifugation and washed once with ice-cold PBS. Pellets were flash-frozen and stored −80° C.
Cell pellets were thawed on ice and resuspended in lysis buffer (50 mM K-HEPES, pH 8.0, 250 mM KCl, 0.1% Tween, 10 mM imidazole, 0.5 mM Mg-ATP, 1 mM PMSF, 2 mM benzimidine, 1× complete protease inhibitor cocktail (Roche)). Cell suspensions were incubated with 1 mg/ml lysozyme and 5 mM β-mercaptoethanol on ice for 10 minutes, followed by sonication (3×30 sec). All subsequent procedures were performed at 4° C. Lysates were centrifuged at 40,000×g for 40 minutes. Supernatants were diluted and loaded onto an SP Sepharose column (Pharmacia, 5 ml cartridge) in buffer A (50 mM K-HEPES, pH 6.8, 1 mM MgCl2, 1 mM EGTA, 10 μM Mg-ATP, 1 mM DTT) and eluted with a 0 to 750 mM KCl gradient in buffer A. Fractions containing KSP were pooled and incubated with Ni-NTA resin (Qiagen) for one hour. The resin was washed three times with buffer B (Lysis buffer minus PMSP and protease inhibitor cocktail), followed by three 15-minute incubations and washes with buffer B. Finally, the resin was incubated and washed for 15 minutes three times with buffer C (same as buffer B except for pH 6.0) and poured into a column. KSP was eluted with elution buffer (identical to buffer B except for 150 mM KCl and 250 mM imidazole). KSP-containing fractions were pooled, made 10% in sucrose, and stored at −80° C.
Microtubules are prepared from tubulin isolated from bovine brain. Purified tubulin (>97% MAP-free) at 1 mg/ml is polymerized at 37° C. in the presence of 10 μM paclitaxel, 1 mM DTT, 1 mM GTP in BRB80 buffer (80 mM K-PIPES, 1 mM EGTA, 1 mM MgCl2 at pH 6.8). The resulting microtubules are separated from non-polymerized tubulin by ultracentrifugation and removal of the supernatant. The pellet, containing the microtubules, is gently resuspended in 10 μM paclitaxel, 1 mM DTT, 50 μg/ml ampicillin, and 5 μg/ml chloramphenicol in BRB80.
The kinesin motor domain is incubated with microtubules, 1 mM ATP (1:1 MgCl2: Na-ATP), and compound at 23° C. in buffer containing 80 mM K-HEPES (pH 7.0), 1 mM EGTA, 1 mM DTT, 1 mM MgCl2, and 50 mM KCl. The reaction is terminated by a 2-10 fold dilution with a final buffer composition of 80 mM HEPES and 50 mM EDTA. Free phosphate from the ATP hydrolysis reaction is measured via a quinaldine red/ammonium molybdate assay by adding 150 μl of quench C buffer containing a 2:1 ratio of quench A:quench B. Quench A contains 0.1 mg/ml quinaldine red and 0.14% polyvinyl alcohol; quench B contains 12.3 mM ammonium molybdate tetrahydrate in 1.15 M sulfuric acid. The reaction is incubated for 10 minutes at 23° C., and the absorbance of the phospho-molybdate complex is measured at 540 nm.

In the case of `CN(C)C(=O)N1CC(c2cc(F)ccc2F)=CC1(CCC(=O)NN)c1ccccc1` (stereo not shown) [Compound 25-1, 4-(2,5-difluorophenyl)-2-(3-hydrazino-3-oxopropyl)-N,N-dimethyl-2-phenyl-2,5-hydro-1H-pyrrole-1-carboxamide], the IC50 – broadly, the concentration that gives 50% inhibition – was no more than 50 µM. Next, `CN(C)CCCC1(c2ccccc2)C=C(c2cc(F)ccc2F)CN1C(=O)N(C)C1CCOCC1` (stereo not shown) [Compound 28-3, 4-(2,5-difluorophenyl)-2-[3-(dimethylamino)propyl]-N-methyl-2-phenyl-N-tetrahydro-2H-pyran-4-yl-2,5-dihydro-1H-pyrrole-1-carboxamide]: no more than 50 µM; `CN(C)CCCC1(c2ccccc2)C=C(c2cc(F)ccc2F)CN1C(=O)C(C)(C)O` (stereo not shown) [Compound 29-3, 1-{4-(2,5-difluorophenyl)-2-[3-(dimethylamino)propyl]-2-phenyl-2,5-dihydro-1-pyrrol-1-yl}-2-methyl-1-oxopropan-2-ol]: no more than 50 µM; `CN(C)C(=O)N1CC(c2cc(F)ccc2F)=C[C@@]1(CCC(N)C(F)F)c1ccccc1` (stereo partly drawn) [Compound 31-3, (2S)-2-(3-amino-4,4-difluorobutyl)-4-(2,5-difluorophenyl)-N,N-dimethyl-2-phenyl-2,5-dihydro-1H-pyrrole-1-carboxamide]: no more than 50 µM.
